Measurements: paper PMC12228718, “A porin-like protein used by bacterial predators defines a wider lipid-trapping superfamily” (Nature Communications, 2025)
Values belong to the compound of their own block, whether it stands above or below them.

Legend:
PopA (Bd0427; PopAΔSP) = biological target: T1, PopA (Bd0427; PopAΔSP) (Bdellovibrio bacteriovorus, UniProt Q6MQN4); experiment: X-ray crystallography (C222_[…] Å); assay type: binding; conditions: palmitate modelled in difference density behind loop 2 helix, carboxylate to R88; ligand not added, placed after AlphaFold3 suggestion
T1 construct: aa 21-353, signal peptide removed; selenomethionyl form A phased; homopentamer
T1 sequence (Q6MQN4 entry or part of it, stated change not applied): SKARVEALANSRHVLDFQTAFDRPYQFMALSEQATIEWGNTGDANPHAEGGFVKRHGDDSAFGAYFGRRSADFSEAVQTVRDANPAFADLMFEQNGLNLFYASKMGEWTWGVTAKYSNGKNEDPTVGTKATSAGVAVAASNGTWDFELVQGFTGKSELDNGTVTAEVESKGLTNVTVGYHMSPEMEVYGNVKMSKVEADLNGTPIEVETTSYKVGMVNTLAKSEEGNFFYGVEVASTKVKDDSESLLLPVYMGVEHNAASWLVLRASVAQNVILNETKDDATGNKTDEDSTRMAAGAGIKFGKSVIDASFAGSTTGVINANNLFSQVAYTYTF

[1] = biological target: PopAhis (mature PopA with an internal His tag in loop 2), natively folded (B. bacteriovorus HD100); experiment: cryo-EM structure; native PopAhis, 0.02 mg/mL in 50 mM Tris pH 8, 150 mM NaCl, 0.03% w/v DDM; 2.85 Å in C1 symmetry, 2.66 Å in C5 symmetry
PopAhis = biological target: T2, PopAhis (Bdellovibrio bacteriovorus, UniProt Q6MQN4); experiment: liposome swelling assay (OD400); assay type: biochemical; conditions: relative to OmpF with L-arabinose = 100%; pH 7.0 proteoliposomes; passive permeation
T2 construct: gene Bd0427; mature PopA with internal His tag SSHHHHHHGSS inserted after A103 (loop 2); pelB leader at start; pET29b, E. coli BL21(DE3) RIPL; native folded, DDM-solubilised; homopentamer
T2 sequence (Q6MQN4 entry or part of it): as the sequence (Q6MQN4 entry or part of it, stated change not applied) above

[2] = biological target: PopAΔSP (Bd0427, aa 21-353), refolded (B. bacteriovorus HD100); experiment: crystal structure; refolded PopAΔSP in β-OG detergent; C222(1) crystal form, 2.8 Å; five copies in the asymmetric unit

Compound: CCCCCCCCCCCCCCCC(=O)O [palmitate]
X-ray crystallography (C222_1, 2.8 Å) (PopA (Bd0427; PopAΔSP)): Refinement verified that palmitate fits the density well (Fig. 2h)

stoichiometry N [1]: 5
Compound: PopAhis (mature PopA with an internal His tag in loop 2), natively folded (natural protein)

Compound: NCC(=O)O [glycine]
relative swelling rate (PopAhis): only able to permit the passage of small substrates, notably glycine and alanine (Fig. 3e)

Compound: C[C@H](N)C(=O)O [alanine]
relative swelling rate (PopAhis): only able to permit the passage of small substrates, notably glycine and alanine (Fig. 3e)

stoichiometry N [2]: 5
Compound: PopAΔSP (Bd0427, aa 21-353), refolded (natural protein)
